# In patent publication US6040307A, “Methods ad compositions of (-) ketoconazole for treating fungal yeast and dermatophyte infections” (priority 1999, dated 2000):
# Entries after “also recorded” stand apart in the source; their conditions may differ.
# Assays:
# [1] = test system: isolated guinea pig hearts; assay: QT duration and action potential duration in isolated guinea pig hearts, perfused with oxygenated Tyrode's solution
# Experimental: The hearts were perfused with an oxygenated Tyrode's solution, containing 0.0; 1.0; 5.0 or 10.0 μM of ketoconazole. QT duration and action potential duration (APD) were measured from cardiac electrodes. APD was measured at 50% (APD-50) and 90% (APD-90). In the table, "N" is the number of hearts, and QT and APD are measured in milliseconds.
# [2] = test system: microsporum canis, trichophyton mentagrophytes, candida tropicalis, candida albicans, and other fungi and bacteria; settings: cited from earlier work
# synthesis of ergosterol = settings: fungal cell membranes; cited from earlier work
# liver = settings: cited from earlier work
# patients = settings: human, in vivo; cited from earlier work
# [3] = in vivo, po; cited from earlier work
# delayed rectifier (Ik) = settings: cited from earlier work
# cardiac repolarization = settings: in vivo; cited from earlier work
# [4] = of 75 cases adequately followed up
structure (smiles),measurement,setting,value
"CC(=O)N1CCN(c2ccc(OCC3COC(Cn4ccnc4)(c4ccc(Cl)cc4Cl)O3)cc2)CC1 (racemic) [Ketoconazole, 1-acetyl-4-[4-[[2-(2,4-dichlorophenyl)-2-(1H-imidazole-1-ylmethyl)-1,3-dioxolan-4-yl]methoxy]phenyl]piperazine]",APD-50,"[1]; 1.0 μM, N = 2 hearts, baseline 145 ± 5",149 ± 1 milliseconds
same,APD-90,"[1]; 1.0 μM, N = 2 hearts, baseline 185 ± 10",195 ± 5 milliseconds
same,QT,"[1]; 1.0 μM, N = 2 hearts, baseline 230 ± 10",232 ± 9 milliseconds
same,APD-50,"[1]; 5.0 μM, N = 3 hearts, baseline 147 ± 5",163 ± 5 milliseconds
same,APD-90,"[1]; 5.0 μM, N = 3 hearts, baseline 187 ± 9",221 ± 8 milliseconds
same,QT,"[1]; 5.0 μM, N = 3 hearts, baseline 233 ± 9",261 ± 8 milliseconds
same,APD-50,"[1]; 10.0 μM, N = 3 hearts, baseline 140 ± 8",173 ± 2 milliseconds
same,APD-90,"[1]; 10.0 μM, N = 3 hearts, baseline 177 ± 14",233 ± 9 milliseconds
same,QT duration and action potential duration (in words),[1]; isolated guinea pig hearts,increases QT duration and action potential duration
same,arrhythmogenic effect (in words),"[1]; isolated guinea pig hearts, listed as racemic ketoconazole",may be associated with an increased risk of cardiac arrhythmia; also recorded: indicative of a potential arrhythmogenic effect
same,effect of 10% inactivated bovine serum on antifungal activity,[2]; Sabouraud broth containing 10% inactivated bovine serum,enhanced
same,inhibition of growth,"[2]; Sabouraud broth, 14 days of incubation",Complete or marked inhibition of growth
same,synthesis of ergosterol,synthesis of ergosterol,impairs the synthesis of ergosterol
same,reports of hepatotoxicity,"liver; 1981-1984, United Kingdom",82 reports
same,time for liver function tests to return to normal after treatment was stopped (average),liver; average,3.1 months
same,hepatocellular injury suggested by serum liver function tests,liver; in vivo,10 of the 16
same,deaths among the cases probably related to treatment,liver; of 16 cases,3 deaths
same,cases possibly related to treatment,liver; [4],48 cases
same,cases probably related to treatment,liver; [4],16 cases
same,deaths among the reports of hepatotoxicity,liver; of 82 reports,5 deaths
same,"gastrointestinal side effects, occurrence in patients",patients,5-10 % of patients
same,torsades de pointes,patients,"torsades de pointes, has been reported"
same,major route of excretion,[3],via the bile into the intestinal tract
same,metabolism,[3],eventually metabolized to several inactive metabolites
same,serum concentration,[3],a linear increase in serum concentration
CCN(CC)CCNC(=O)c1ccc(NC(C)=O)cc1 [acetyl-procainamide],block of cellular potassium channel delayed rectifier (Ik),delayed rectifier (Ik),block a cellular potassium channel called the delayed rectifier (Ik)
same,prolongation of cardiac repolarization,cardiac repolarization,cause a prolongation of cardiac repolarization
same,torsades de pointes (side effect),cardiac repolarization,well known side effect
C=C[C@H]1C[N@@]2CC[C@H]1C[C@@H]2[C@@H](O)c1ccnc2ccc(OC)cc12 [quinidine],block of cellular potassium channel delayed rectifier (Ik),delayed rectifier (Ik),block a cellular potassium channel called the delayed rectifier (Ik)
same,prolongation of cardiac repolarization,cardiac repolarization,cause a prolongation of cardiac repolarization
same,torsades de pointes (side effect),cardiac repolarization,well known side effect
CC(C)NCC(O)c1ccc(NS(C)(=O)=O)cc1 (stereo not shown) [sotalol],block of cellular potassium channel delayed rectifier (Ik),delayed rectifier (Ik),block a cellular potassium channel called the delayed rectifier (Ik)
same,prolongation of cardiac repolarization,cardiac repolarization,cause a prolongation of cardiac repolarization
same,torsades de pointes (side effect),cardiac repolarization,well known side effect
